Measured values taken from article PMC11823609, “Advancements in the fight against globally distributed OXA-48 carbapenemase: evaluating the new generation of carbapenemase inhibitors” (Antimicrobial Agents and Chemotherapy, 2025).
≈ marks a conversion by molar mass, not a printed value. Like-named read-outs stand apart in the source and are kept apart here.

Tests used:
E. coli TG1 (OXA-48) = assay: microbe, parasite or virus in culture; type: cell-based, Escherichia coli; conditions: Escherichia coli
Experimental: (§1) The MICs of each of the individual compounds (antibiotics or inhibitors) were also determined. The MICs were determined for the E. coli isogenic expressing OXA-48 (and both OXA-48 and CTX-M-14) to assess their activity against the carbapenemase; MICs were also determined for the 18 Enterobacterales clinical isolates in order to evaluate the new inhibitors against also their resistance concomitant mechanisms. The MICs were determined in triplicate experiments, and the EUCAST 13.0 clinical breakpoints were followed (http://www.eucast.org/clinical_breakpoints).
(§2) For comparative evaluation of the activity of each inhibitor alone against the carbapenemase OXA-48, all inhibitors (at 4 mg/L) were tested in the presence of a carbapenem (ertapenem, adequate substrate) and a cephalosporin (ceftazidime, poor substrate) as reporter substrates. This prevented any possible masking effect produced by the different partner antibiotics. These assays were also performed with isogenic transformants and clinical isolates.

E. coli TG1 = assay: microbe, parasite or virus in culture; type: cell-based; conditions: Escherichia coli
Experimental: as §1, §2

[1] = test system: E. coli HB4 ΔompC/F (CTX-M-14 + OXA-48); assay: microbe, parasite or virus in culture; type: cell-based, Escherichia coli; conditions: Escherichia coli
Source text: (§3) The E. coli HB4 strain was used to gain a more complete perspective, by evaluating the involvement in resistance of a low permeability background with the carbapenemase OXA-48, as well as coproduction of an ESBL and the carbapenemase; thus, the ESBL CTX-M-14 and OXA-48 were cloned together and separately into E. coli HB4. The characteristics of these strains and transformants are summarized in Table S1, and the cloning procedures are outlined in the supplemental methods.
as §1, §2

E. coli HB4 ΔompC/F = assay: microbe, parasite or virus in culture; type: cell-based, Escherichia coli; conditions: Escherichia coli
Source text: as §3, §1, §2

[2] = test system: E. coli HB4 ΔompC/F (CTX-M-14); assay: microbe, parasite or virus in culture; type: cell-based, Escherichia coli; conditions: Escherichia coli
Source text: as §3, §1, §2

[3] = test system: E. coli HB4 ΔompC/F (OXA-48); assay: microbe, parasite or virus in culture; type: cell-based, Escherichia coli; conditions: Escherichia coli
Source text: as §3, §1, §2

[4] = test system: K. pneumoniae strain 19 (MLST 11, ESBL); assay: microbe, parasite or virus in culture; type: cell-based; conditions: Klebsiella pneumoniae
Experimental: (§4) The efficacy of these new BLIs was also evaluated against 18 genetically diverse WGS-characterized collection of OXA-48-positive Enterobacterales recovered as part of the Carbapenem-resistant Enterobacterales Genome Database Project (https://genomes.cnag.cat/incredble) listed in Table S2 ([13]). Combinations of clinical isolates (five pairs of Klebsiella pneumoniae, two pairs of Enterobacter cloacae, and two pairs of E. coli) were chosen for analysis: (i) nine strains carrying ESBLs; and (ii) nine strains (genetically closer available strains) without ESBLs.
as §1, §2

[5] = test system: K. pneumoniae strain 125 (MLST 307, ESBL); assay: microbe, parasite or virus in culture; type: cell-based; conditions: Klebsiella pneumoniae
Experimental: as §4, §1, §2

[6] = test system: E. coli strain 224 (MLST 127, No ESBL); assay: microbe, parasite or virus in culture; type: cell-based; conditions: Escherichia coli, E. coli 224, read-out: MIC
Experimental: as §4, §1, §2

[7] = test system: K. pneumoniae strain 237 (MLST 147, No ESBL); assay: microbe, parasite or virus in culture; type: cell-based; conditions: Klebsiella pneumoniae, K. pneumoniae 237, read-out: MIC
Experimental: as §4, §1, §2

[8] = test system: E. cloacae strain 281 (MLST 78, No ESBL); assay: microbe, parasite or virus in culture; type: cell-based; conditions: Enterobacter cloacae, E. cloacae 281, read-out: MIC
Experimental: as §4, §1, §2

[9] = test system: E. coli strain 264 (MLST 131, No ESBL); assay: microbe, parasite or virus in culture; type: cell-based; conditions: Escherichia coli, E. coli 264, read-out: MIC
Experimental: as §4, §1, §2

[10] = test system: K. pneumoniae strain 71 (MLST 15, No ESBL); assay: microbe, parasite or virus in culture; type: cell-based; conditions: Klebsiella pneumoniae, K. pneumoniae 71, read-out: MIC
Experimental: as §4, §1, §2

[11] = test system: K. pneumoniae strain 194 (MLST 392, No ESBL); assay: microbe, parasite or virus in culture; type: cell-based; conditions: Klebsiella pneumoniae, K. pneumoniae 194, read-out: MIC
Experimental: as §4, §1, §2

[12] = test system: K. pneumoniae strain 23 (MLST 392, ESBL); assay: microbe, parasite or virus in culture; type: cell-based; conditions: Klebsiella pneumoniae
Experimental: as §4, §1, §2

[13] = test system: E. cloacae strain 231 (MLST 171, No ESBL); assay: microbe, parasite or virus in culture; type: cell-based; conditions: Enterobacter cloacae, E. cloacae 231, read-out: MIC
Experimental: as §4, §1, §2

[14] = test system: E. coli strain 177 (MLST 131, ESBL); assay: microbe, parasite or virus in culture; type: cell-based; conditions: Escherichia coli
Experimental: as §4, §1, §2

[15] = test system: K. pneumoniae strain 413 (MLST 147, ESBL); assay: microbe, parasite or virus in culture; type: cell-based; conditions: Klebsiella pneumoniae
Experimental: as §4, §1, §2

[16] = test system: K. pneumoniae strain 238 (MLST 15, ESBL); assay: microbe, parasite or virus in culture; type: cell-based; conditions: Klebsiella pneumoniae
Experimental: as §4, §1, §2

[17] = test system: K. pneumoniae strain 170 (MLST 307, No ESBL); assay: microbe, parasite or virus in culture; type: cell-based; conditions: Klebsiella pneumoniae, K. pneumoniae 170, read-out: MIC
Experimental: as §4, §1, §2

[18] = test system: E. cloacae strain 235 (MLST 171, ESBL); assay: microbe, parasite or virus in culture; type: cell-based; conditions: Enterobacter cloacae
Experimental: as §4, §1, §2

[19] = test system: E. cloacae strain 272 (MLST 78, ESBL); assay: microbe, parasite or virus in culture; type: cell-based; conditions: Enterobacter cloacae
Experimental: as §4, §1, §2

[20] = test system: K. pneumoniae strain 497 (MLST 11, No ESBL); assay: microbe, parasite or virus in culture; type: cell-based; conditions: Klebsiella pneumoniae, K. pneumoniae 497, read-out: MIC
Experimental: as §4, §1, §2

[21] = test system: E. coli strain 103 (MLST 10, ESBL); assay: microbe, parasite or virus in culture; type: cell-based; conditions: Escherichia coli
Experimental: as §4, §1, §2

[22] = test system: OXA-48-producing Enterobacterales clinical isolates; assay: MIC summary over clinical isolates; type: cell-based
Experimental: as §4, §1, §2

[23] = ertapenem alone or with BLI at 4 mg/L
[24] = BL alone or BL/BLI: AVI, REL, TAN, DUR 4 mg/L, VAB, XER 8 mg/L, ZID, NAC 1:1

Row | Compound | MIC (E. coli TG1 (OXA-48)) [µg/mL] | MIC [1] [µg/mL] | MIC (E. coli HB4 ΔompC/F) [µg/mL] | MIC [2] [µg/mL] | MIC [3] [µg/mL] | MIC [4] [µg/mL] | MIC [5] [µg/mL] | MIC [12] [µg/mL] | MIC [14] [µg/mL] | MIC [15] [µg/mL] | MIC [16] [µg/mL] | MIC [18] [µg/mL] | MIC [19] [µg/mL] | MIC [21] [µg/mL] | MIC (E. coli TG1; [24]) [µg/mL] | MIC [6, 24] [µg/mL] | MIC [7, 24] [µg/mL] | MIC [10, 24] [µg/mL] | MIC [11, 24] [µg/mL] | MIC [17, 24] [µg/mL] | other results
1 | C[C@@H](O)[C@H]1C(=O)N2C(C(=O)O)=C(S[C@@H]3CN[C@H](C(=O)Nc4cccc(C(=O)O)c4)C3)[C@H](C)[C@H]12 [ERT, ertapenem] | 1 (≈ 2.1 µM) | 32 (≈ 67.3 µM) | 0.12 (≈ 0.252 µM) | 0.5 (≈ 1.05 µM) | 32 (≈ 67.3 µM) | 4 | 8 | 4 | 4 | ≥ 256 | 4 | ≥ 256 | 16 | 4 | – | – | – | – | – | – | MIC (E. coli TG1; [23]): ≤ 0.06 µg/mL; MIC [6, 23]: 2 µg/mL; MIC [7, 23]: 4 µg/mL; MIC [8, 23]: 4 µg/mL; MIC [9, 23]: 4 µg/mL; MIC [10, 23]: 8 µg/mL; MIC [11, 23]: 4 µg/mL; MIC [13, 23]: 8 µg/mL; MIC [17, 23]: 4 µg/mL; MIC [20, 23]: 8 µg/mL
2 | CO/N=C(\C(=O)N[C@@H]1C(=O)N2C(C(=O)[O-])=C(C[N+]3(C)CCCC3)CS[C@H]12)c1csc(N)n1 [FEP, cefepime] | ≤ 0.06 | – | 1 (≈ 2.08 µM) | – | – | – | – | 32 | ≥ 256 | 128 | – | – | – | – | ≤ 0.06 | 0.5 | 0.5 | 0.5 | 0.25 | 0.25 | MIC [20, 24]: 0.5 µg/mL
3 | C[C@@H](O)[C@H]1C(=O)N2C(C(=O)O)=C(SCCN=CN)C[C@H]12 [IMP, imipenem] | 0.12 (≈ 0.401 µM) | 16 (≈ 53.4 µM) | ≤ 0.06 | 0.25 (≈ 0.835 µM) | 16 (≈ 53.4 µM) | 1 | 4 | 4 | 2 | 16 | 2 | ≥ 256 | 2 | 2 | ≤ 0.06 | 2 | 2 | 2 | 2 | 4 | MIC [8, 24]: 8 µg/mL; MIC [9, 24]: 0.5 µg/mL; MIC [13, 24]: 2 µg/mL; MIC [20, 24]: 4 µg/mL
4 | C[C@@H](O)[C@H]1C(=O)N2C(C(=O)O)=C(S[C@@H]3CN[C@H](C(=O)N(C)C)C3)[C@H](C)[C@H]12 [MER, meropenem] | ≤ 0.06 | 32 (≈ 83.4 µM) | 0.12 (≈ 0.313 µM) | 0.5 (≈ 1.3 µM) | 32 (≈ 83.4 µM) | 1 | 2 | 1 | 0.5 | 16 | 1 | 128 | 1 | 0.25 | ≤ 0.06 | 0.5 | 1 | 2 | 2 | 1 | MIC [8, 24]: 1 µg/mL; MIC [9, 24]: 1 µg/mL; MIC [13, 24]: 1 µg/mL; MIC [20, 24]: 1 µg/mL
5 | O=C(NC1CCNCC1)[C@@H]1CC[C@@H]2CN1C(=O)N2OS(=O)(=O)O [Relebactam, relebactam] | 64 (≈ 184 µM) | ≥ 128 | ≥ 128 | ≥ 128 | ≥ 128 | ≥ 128 | ≥ 128 | ≥ 128 | ≥ 128 | ≥ 128 | ≥ 128 | ≥ 128 | ≥ 128 | ≥ 128 | – | – | – | – | – | – | MIC (E. coli TG1; β-lactamase inhibitor alone): 32 µg/mL (≈ 91.9 µM); MIC ([6]; β-lactamase inhibitor alone): ≥ 128 µg/mL; MIC ([7]; β-lactamase inhibitor alone): ≥ 128 µg/mL; MIC ([8]; β-lactamase inhibitor alone): ≥ 128 µg/mL; MIC ([9]; β-lactamase inhibitor alone): ≥ 128 µg/mL; MIC ([10]; β-lactamase inhibitor alone): ≥ 128 µg/mL; MIC ([11]; β-lactamase inhibitor alone): ≥ 128 µg/mL; MIC ([13]; β-lactamase inhibitor alone): ≥ 128 µg/mL; MIC ([17]; β-lactamase inhibitor alone): ≥ 128 µg/mL; MIC ([20]; β-lactamase inhibitor alone): ≥ 128 µg/mL
6 | CC1(C)[C@H](C(=O)O)N2C(=O)C[C@H]2S1(=O)=O [SUL, sulbactam] | 32 (≈ 137 µM) | 64 (≈ 274 µM) | 32 (≈ 137 µM) | 32 (≈ 137 µM) | 64 (≈ 274 µM) | 64 | 64 | 128 | 64 | 128 | 128 | ≥ 256 | 128 | 64 | 32 (≈ 137 µM) | 128 | 64 | 128 | 64 | 64 | MIC [22]: ≥ 64 µg/mL; MIC [8, 24]: 128 µg/mL; MIC [9, 24]: 64 µg/mL; MIC [13, 24]: 64 µg/mL; MIC [20, 24]: 128 µg/mL
